{"source": "paper PMC10648927", "about": "“Examining the activity of cefepime-taniborbactam against Burkholderia cepacia complex and Burkholderia gladioli isolated from cystic fibrosis patients in the United States” (Antimicrobial Agents and Chemotherapy, 2023)", "molecular_target": "T1, PenA1 β-lactamase (class A carbapenemase) (Burkholderia multivorans, UniProt A0A0H3KN52)", "T1 construct": "gene ampC", "T1 sequence (A0A0H3KN52 entry or part of it)": "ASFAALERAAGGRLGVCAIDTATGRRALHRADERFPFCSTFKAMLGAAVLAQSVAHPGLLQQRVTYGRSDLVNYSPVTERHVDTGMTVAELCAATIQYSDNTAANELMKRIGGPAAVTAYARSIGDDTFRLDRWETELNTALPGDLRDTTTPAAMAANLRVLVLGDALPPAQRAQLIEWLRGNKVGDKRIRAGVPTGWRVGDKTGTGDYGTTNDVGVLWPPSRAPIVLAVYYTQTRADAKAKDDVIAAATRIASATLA", "assay": "steady-state β-lactamase inhibition kinetics (Ki app, k2/K, koff)", "type": "biochemical", "conditions": "read-out: Taniborbactam", "data": [{"molecule": "NCCN[C@H]1CC[C@H](CC(=O)N[C@H]2Cc3cccc(C(=O)O)c3OB2O)CC1", "note": "[taniborbactam]", "values": [{"measurement": "Ki", "value": "400 ± 40", "unit": "nM"}]}]}
